We go through two molecules from US12662469B2 (SIRONAX LTD, priority 2018, dated 2026).

One experiment addresses T1, Human RIP1 kinase (Homo sapiens, UniProt Q13546).
T1 sequence (Q13546 1-671): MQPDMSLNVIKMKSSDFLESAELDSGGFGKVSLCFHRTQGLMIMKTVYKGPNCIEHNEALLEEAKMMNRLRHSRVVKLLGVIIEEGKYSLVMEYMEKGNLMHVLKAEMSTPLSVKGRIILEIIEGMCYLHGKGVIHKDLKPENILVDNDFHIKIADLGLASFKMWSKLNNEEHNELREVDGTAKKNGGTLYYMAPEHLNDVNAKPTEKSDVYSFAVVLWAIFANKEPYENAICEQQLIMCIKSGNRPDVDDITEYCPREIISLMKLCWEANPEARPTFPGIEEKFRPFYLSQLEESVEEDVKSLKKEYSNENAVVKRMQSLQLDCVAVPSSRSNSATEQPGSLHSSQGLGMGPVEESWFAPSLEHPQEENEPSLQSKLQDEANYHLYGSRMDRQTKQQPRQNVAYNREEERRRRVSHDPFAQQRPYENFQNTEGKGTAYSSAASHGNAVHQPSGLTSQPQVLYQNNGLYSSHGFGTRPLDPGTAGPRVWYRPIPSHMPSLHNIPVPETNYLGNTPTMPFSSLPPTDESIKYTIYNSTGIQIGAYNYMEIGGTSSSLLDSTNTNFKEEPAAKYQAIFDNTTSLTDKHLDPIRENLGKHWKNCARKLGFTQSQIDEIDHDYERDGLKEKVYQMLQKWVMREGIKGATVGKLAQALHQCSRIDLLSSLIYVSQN
Nature of the experiment: Human RIP1 kinase assay. The class given is biochemical. The conditions noted are these: representative, exemplary data.

The next experiment concerns Cell Necrosis. Nature of the experiment: Cell necrosis assay / cell viability assay (necrosis inhibitor activity). In kind it is cell-based.
Where [1] appears, read: necrosis inhibitor activity, EC data for 14-191 extrapolated, read-out: EC50.
Where [2] appears, read: representative, exemplary data, read-out: Cell viability assay, EC50.

Usually IC50 stands for the point on the concentration scale where inhibition reaches its midpoint. Lower therefore signals greater potency in that assay. By EC50 is commonly meant the concentration needed to bring the measured effect to its halfway point.

Like-named read-outs stand apart in the source and are kept apart here.

On Human RIP1 kinase, `O=C(N1CC(Oc2ccc(F)cc2F)C1)N1OCC[C@H]1c1ccccc1` [Compound 80, (S)-(3-(2,4-difluorophenoxy)azetidin-1-yl)(3-phenylisoxazolidin-2-yl)methanone] displayed an IC50 of less than 100 nM. Further, the concentration for a half-maximal effect (EC50) in the experiment with Cell Necrosis (setting [1]) is 1 to 1000 nM; with Cell Necrosis (setting [2]), 1 to 100 nM.

In the case of `NC(=O)c1csc(OC2CN(C(=O)N3N=CCC3c3cc(F)cc(F)c3)C2)n1` (stereo not drawn) [Compound 132, 2-((1-(5-(3,5-difluorophenyl)-4,5-dihydro-1H-pyrazole-1-carbonyl)azetidin-3-yl)oxy)thiazole-4-carboxamide], the 50% inhibitory concentration (IC50) at Human RIP1 kinase is less than 100 nM. Moreover, the EC50 was 1 to 1000 nM with Cell Necrosis (setting [1]) and 1 to 100 nM in the experiment with Cell Necrosis (setting [2]).
